Reference: the NIST ThermoML archive (doi:10.1016/j.jct.2014.07.018)
Numbers after ± are expanded uncertainties.

Experiment: molar heat capacity at constant pressure
Details: 101.33 kPa, Vacuum adiabatic calorimetry

CCC[n+]1ccn(C)c1.[Br-] [1-methyl-3-propylimidazolium bromide]
molar heat capacity at constant pressure (147.83 K, Crystal 2): 133.2 ± 0.6 J/K/mol
molar heat capacity at constant pressure (148.11 K, Glass): 140.8 ± 0.6 J/K/mol
molar heat capacity at constant pressure (149.71 K, Crystal 2): 134.1 ± 0.6 J/K/mol
molar heat capacity at constant pressure (149.83 K, Crystal 2): 134.2 ± 0.6 J/K/mol
molar heat capacity at constant pressure (150 K, Crystal 2): 134.3 ± 0.6 J/K/mol
molar heat capacity at constant pressure (150 K, Glass): 141.9 ± 0.6 J/K/mol
molar heat capacity at constant pressure (150.11 K, Glass): 141.9 ± 0.6 J/K/mol
molar heat capacity at constant pressure (151.82 K, Crystal 2): 135.2 ± 0.6 J/K/mol
molar heat capacity at constant pressure (151.83 K, Crystal 2): 135.2 ± 0.6 J/K/mol
molar heat capacity at constant pressure (152.11 K, Glass): 143.1 ± 0.6 J/K/mol
molar heat capacity at constant pressure (153.84 K, Crystal 2): 136.2 ± 0.6 J/K/mol
molar heat capacity at constant pressure (153.93 K, Crystal 2): 136.3 ± 0.6 J/K/mol
molar heat capacity at constant pressure (154.12 K, Glass): 144.2 ± 0.6 J/K/mol
molar heat capacity at constant pressure (155.85 K, Crystal 2): 137.2 ± 0.6 J/K/mol
molar heat capacity at constant pressure (156.04 K, Crystal 2): 137.3 ± 0.6 J/K/mol
molar heat capacity at constant pressure (156.13 K, Glass): 145.4 ± 0.6 J/K/mol
molar heat capacity at constant pressure (157.86 K, Crystal 2): 138.3 ± 0.6 J/K/mol
molar heat capacity at constant pressure (158.13 K, Glass): 146.5 ± 0.6 J/K/mol
molar heat capacity at constant pressure (158.16 K, Crystal 2): 138.4 ± 0.6 J/K/mol
molar heat capacity at constant pressure (159.86 K, Crystal 2): 139.3 ± 0.6 J/K/mol
molar heat capacity at constant pressure (160 K, Crystal 2): 139.3 ± 0.6 J/K/mol
molar heat capacity at constant pressure (160 K, Glass): 147.5 ± 0.7 J/K/mol
molar heat capacity at constant pressure (160.14 K, Glass): 147.6 ± 0.6 J/K/mol
molar heat capacity at constant pressure (160.27 K, Crystal 2): 139.5 ± 0.6 J/K/mol
molar heat capacity at constant pressure (161.87 K, Crystal 2): 140.2 ± 0.6 J/K/mol
molar heat capacity at constant pressure (162.15 K, Glass): 148.7 ± 0.6 J/K/mol
molar heat capacity at constant pressure (162.38 K, Crystal 2): 140.6 ± 0.6 J/K/mol
molar heat capacity at constant pressure (163.88 K, Crystal 2): 141.3 ± 0.6 J/K/mol
molar heat capacity at constant pressure (164.17 K, Glass): 149.8 ± 0.7 J/K/mol
molar heat capacity at constant pressure (164.5 K, Crystal 2): 141.6 ± 0.6 J/K/mol
molar heat capacity at constant pressure (165.89 K, Crystal 2): 142.3 ± 0.6 J/K/mol
molar heat capacity at constant pressure (166.18 K, Glass): 151 ± 0.7 J/K/mol
molar heat capacity at constant pressure (166.61 K, Crystal 2): 142.6 ± 0.6 J/K/mol
molar heat capacity at constant pressure (167.9 K, Crystal 2): 143.3 ± 0.6 J/K/mol
molar heat capacity at constant pressure (168.19 K, Glass): 152.2 ± 0.7 J/K/mol
molar heat capacity at constant pressure (168.73 K, Crystal 2): 143.7 ± 0.6 J/K/mol
molar heat capacity at constant pressure (169.91 K, Crystal 2): 144.4 ± 0.6 J/K/mol
molar heat capacity at constant pressure (170 K, Crystal 2): 144.4 ± 0.6 J/K/mol
molar heat capacity at constant pressure (170 K, Glass): 153.2 ± 0.7 J/K/mol
molar heat capacity at constant pressure (170.21 K, Glass): 153.3 ± 0.7 J/K/mol
molar heat capacity at constant pressure (170.84 K, Crystal 2): 144.8 ± 0.6 J/K/mol
molar heat capacity at constant pressure (171.92 K, Crystal 2): 145.4 ± 0.6 J/K/mol
molar heat capacity at constant pressure (172.22 K, Glass): 154.5 ± 0.7 J/K/mol
molar heat capacity at constant pressure (172.95 K, Crystal 2): 146.1 ± 0.6 J/K/mol
molar heat capacity at constant pressure (173.94 K, Crystal 2): 146.6 ± 0.6 J/K/mol
molar heat capacity at constant pressure (174.24 K, Glass): 155.6 ± 0.7 J/K/mol
molar heat capacity at constant pressure (175.06 K, Crystal 2): 147.4 ± 0.6 J/K/mol
molar heat capacity at constant pressure (175.95 K, Crystal 2): 147.9 ± 0.6 J/K/mol
molar heat capacity at constant pressure (176.26 K, Glass): 156.8 ± 0.7 J/K/mol
molar heat capacity at constant pressure (177.17 K, Crystal 2): 148.7 ± 0.6 J/K/mol
molar heat capacity at constant pressure (177.96 K, Crystal 2): 149.1 ± 0.6 J/K/mol
molar heat capacity at constant pressure (178.28 K, Glass): 158 ± 0.7 J/K/mol
molar heat capacity at constant pressure (179.28 K, Crystal 2): 149.8 ± 0.7 J/K/mol
molar heat capacity at constant pressure (179.98 K, Crystal 2): 150.2 ± 0.7 J/K/mol
molar heat capacity at constant pressure (180 K, Crystal 2): 150.2 ± 0.7 J/K/mol
molar heat capacity at constant pressure (180 K, Glass): 159.1 ± 0.7 J/K/mol
molar heat capacity at constant pressure (180.3 K, Glass): 159.2 ± 0.7 J/K/mol
molar heat capacity at constant pressure (181.39 K, Crystal 2): 150.9 ± 0.7 J/K/mol
molar heat capacity at constant pressure (182 K, Crystal 2): 151.2 ± 0.7 J/K/mol
molar heat capacity at constant pressure (182.32 K, Glass): 160.4 ± 0.7 J/K/mol
molar heat capacity at constant pressure (183.49 K, Crystal 2): 152 ± 0.7 J/K/mol
molar heat capacity at constant pressure (184.02 K, Crystal 2): 152.2 ± 0.7 J/K/mol
molar heat capacity at constant pressure (184.34 K, Glass): 161.7 ± 0.7 J/K/mol
molar heat capacity at constant pressure (185.6 K, Crystal 2): 153 ± 0.7 J/K/mol
molar heat capacity at constant pressure (186.04 K, Crystal 2): 153.2 ± 0.7 J/K/mol
molar heat capacity at constant pressure (186.37 K, Glass): 162.9 ± 0.7 J/K/mol
molar heat capacity at constant pressure (187.7 K, Crystal 2): 154.1 ± 0.7 J/K/mol
molar heat capacity at constant pressure (188.06 K, Crystal 2): 154.3 ± 0.7 J/K/mol
molar heat capacity at constant pressure (188.39 K, Glass): 164.2 ± 0.7 J/K/mol
molar heat capacity at constant pressure (189.8 K, Crystal 2): 155.2 ± 0.7 J/K/mol
molar heat capacity at constant pressure (190 K, Crystal 2): 155.3 ± 0.7 J/K/mol
molar heat capacity at constant pressure (190 K, Glass): 164.3 ± 0.7 J/K/mol
molar heat capacity at constant pressure (190.08 K, Crystal 2): 155.3 ± 0.7 J/K/mol
molar heat capacity at constant pressure (190.42 K, Glass): 165.5 ± 0.7 J/K/mol
molar heat capacity at constant pressure (191.9 K, Crystal 2): 156.2 ± 0.7 J/K/mol
molar heat capacity at constant pressure (192.1 K, Crystal 2): 156.3 ± 0.7 J/K/mol
molar heat capacity at constant pressure (192.45 K, Glass): 166.9 ± 0.7 J/K/mol
molar heat capacity at constant pressure (194 K, Crystal 2): 157.3 ± 0.7 J/K/mol
molar heat capacity at constant pressure (194.12 K, Crystal 2): 157.4 ± 0.7 J/K/mol
molar heat capacity at constant pressure (194.48 K, Glass): 168.3 ± 0.7 J/K/mol
molar heat capacity at constant pressure (196.1 K, Crystal 2): 158.4 ± 0.7 J/K/mol
molar heat capacity at constant pressure (196.15 K, Crystal 2): 158.4 ± 0.7 J/K/mol
molar heat capacity at constant pressure (196.52 K, Glass): 169.7 ± 0.7 J/K/mol
molar heat capacity at constant pressure (198.17 K, Crystal 2): 159.4 ± 0.7 J/K/mol
molar heat capacity at constant pressure (198.2 K, Crystal 2): 159.4 ± 0.7 J/K/mol
molar heat capacity at constant pressure (198.56 K, Glass): 171.3 ± 0.7 J/K/mol
molar heat capacity at constant pressure (200 K, Crystal 2): 160.4 ± 0.7 J/K/mol
molar heat capacity at constant pressure (200 K, Glass): 171.3 ± 0.7 J/K/mol
molar heat capacity at constant pressure (200.2 K, Crystal 2): 160.5 ± 0.7 J/K/mol
molar heat capacity at constant pressure (200.29 K, Crystal 2): 160.5 ± 0.7 J/K/mol
molar heat capacity at constant pressure (200.61 K, Glass): 173 ± 0.7 J/K/mol
molar heat capacity at constant pressure (202.22 K, Crystal 2): 161.6 ± 0.7 J/K/mol
molar heat capacity at constant pressure (202.39 K, Crystal 2): 161.7 ± 0.7 J/K/mol
molar heat capacity at constant pressure (202.66 K, Glass): 174.7 ± 0.7 J/K/mol
molar heat capacity at constant pressure (204.25 K, Crystal 2): 162.6 ± 0.7 J/K/mol
molar heat capacity at constant pressure (204.48 K, Crystal 2): 162.8 ± 0.7 J/K/mol
molar heat capacity at constant pressure (204.71 K, Glass): 177.1 ± 0.8 J/K/mol
molar heat capacity at constant pressure (206.28 K, Crystal 2): 163.8 ± 0.7 J/K/mol
molar heat capacity at constant pressure (206.57 K, Crystal 2): 163.9 ± 0.7 J/K/mol
molar heat capacity at constant pressure (206.79 K, Glass): 179.5 ± 0.8 J/K/mol
molar heat capacity at constant pressure (208.31 K, Crystal 2): 164.9 ± 0.7 J/K/mol
molar heat capacity at constant pressure (208.66 K, Crystal 2): 165.1 ± 0.7 J/K/mol
molar heat capacity at constant pressure (208.84 K, Glass): 183.4 ± 0.8 J/K/mol
molar heat capacity at constant pressure (210 K, Crystal 2): 165.9 ± 0.7 J/K/mol
molar heat capacity at constant pressure (210 K, Glass): 183.6 ± 0.8 J/K/mol
molar heat capacity at constant pressure (210.35 K, Crystal 2): 166 ± 0.7 J/K/mol
molar heat capacity at constant pressure (210.75 K, Crystal 2): 166.3 ± 0.7 J/K/mol
molar heat capacity at constant pressure (210.87 K, Glass): 189.3 ± 0.8 J/K/mol
molar heat capacity at constant pressure (212.38 K, Crystal 2): 167.3 ± 0.7 J/K/mol
molar heat capacity at constant pressure (212.84 K, Crystal 2): 167.5 ± 0.7 J/K/mol
molar heat capacity at constant pressure (212.85 K, Glass): 201.5 ± 0.9 J/K/mol
molar heat capacity at constant pressure (214.41 K, Crystal 2): 168.5 ± 0.7 J/K/mol
molar heat capacity at constant pressure (214.71 K, Liquid): 229.7 ± 1 J/K/mol
molar heat capacity at constant pressure (214.92 K, Crystal 2): 168.8 ± 0.7 J/K/mol
molar heat capacity at constant pressure (216.44 K, Crystal 2): 169.7 ± 0.7 J/K/mol
molar heat capacity at constant pressure (216.52 K, Liquid): 256.1 ± 1.1 J/K/mol
molar heat capacity at constant pressure (217 K, Crystal 2): 170.1 ± 0.7 J/K/mol
molar heat capacity at constant pressure (218.48 K, Crystal 2): 170.9 ± 0.7 J/K/mol
molar heat capacity at constant pressure (218.48 K, Liquid): 258.4 ± 1.1 J/K/mol
molar heat capacity at constant pressure (219.08 K, Crystal 2): 171.3 ± 0.7 J/K/mol
molar heat capacity at constant pressure (220 K, Crystal 2): 171.8 ± 0.7 J/K/mol
molar heat capacity at constant pressure (220 K, Liquid): 258.4 ± 1.1 J/K/mol
molar heat capacity at constant pressure (220.51 K, Crystal 2): 172.1 ± 0.7 J/K/mol
molar heat capacity at constant pressure (220.52 K, Liquid): 259.6 ± 1.1 J/K/mol
molar heat capacity at constant pressure (221.15 K, Crystal 2): 172.5 ± 0.7 J/K/mol
molar heat capacity at constant pressure (222.55 K, Crystal 2): 173.3 ± 0.7 J/K/mol
molar heat capacity at constant pressure (223.22 K, Crystal 2): 173.7 ± 0.7 J/K/mol
molar heat capacity at constant pressure (224.59 K, Crystal 2): 174.5 ± 0.7 J/K/mol
molar heat capacity at constant pressure (225.29 K, Crystal 2): 175 ± 0.8 J/K/mol
molar heat capacity at constant pressure (226.63 K, Crystal 2): 175.8 ± 0.8 J/K/mol
molar heat capacity at constant pressure (227.36 K, Crystal 2): 176.2 ± 0.8 J/K/mol
